Data reported in patent US20110319274A1, “Identification of Compounds Modifying a Cellular Response” (Carlsberg A/S, priority 2004, published 2011).

System: GFP expressing U2OS cells and Hek293 cells
Experiment: Adhesion peptide screening for low fluorescence/high adherence properties (FABS, microscope)
Type: cell-based, Human
Details: re-synthesized peptides on beads
Procedure: An adhesion D-amino peptide library was synthesized (500,000 members) as described above in Example 1 and screened for low fluorescence/high adherence properties. This was done in 4 steps:
1) Selection of low fluorescent beads by Fluorescence Activated Bead Sorting (FABS).
The 500,000 member adhesion peptide library was FABSorted and 150,000 low fluorescent beads were isolated.
2) Selection of beads with good cell adhesion properties.
The 150,000 low fluorescent beads were incubated with GFP expressing U2OS cells followed by FABS sorting for high fluorescence (high cell adhesion). 536 beads were isolated.
3) Identification and isolation of beads with high Hek293 cell adherence properties.
The 536 beads were cleared for U2OS cells and incubated with GFP expressing Hek293 cells. 47 beads with high cell adhesion properties were isolated using a fluorescence microscope.
4) Sequence elucidation and re-synthesis of selected peptides.
22 peptides were sequenced and six of them were re-synthesized. Based on Structure-Activity of the six peptides, four additional ones (AP-7 […] AP-10) were synthesized.

Substance: arg-gln-arg-ile-arg (RQRIR; Cell adhesion peptide) [SEQ IS 35]
- overall performance (low fluorescence/high adherence properties): best overall performance
